Measurements from patent US6852744B2, “Pyrrolidine derivatives and their use as chymase inhibitor” (Dainippon Pharmaceutical Co., Ltd., priority 2000, dated 2005).

Each compound was assayed against T1, monkey chymase (Macaca fascicularis, UniProt P56435) (assay: Monkey chymase inhibitory activity (in vitro, angiotensin I substrate)). Settings: chymase purified from monkey cheek pouch and stomach; substrate angiotensin I; 37° C.; read-out: Monkey Chymase Inhibition (IC50:nM).
T1 construct: chymase was extracted from homogenized monkey cheek pouch and stomach; from tissue; host or cells: monkey cheek pouch and stomach
T1 sequence (P56435 22-247): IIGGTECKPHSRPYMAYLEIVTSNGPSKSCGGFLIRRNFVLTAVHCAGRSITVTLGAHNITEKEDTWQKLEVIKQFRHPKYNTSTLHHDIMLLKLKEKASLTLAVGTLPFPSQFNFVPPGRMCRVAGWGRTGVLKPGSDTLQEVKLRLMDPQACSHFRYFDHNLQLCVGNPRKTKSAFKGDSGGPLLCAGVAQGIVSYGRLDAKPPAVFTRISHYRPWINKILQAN
Type: biochemical
Description: The inhibitory activities of the compounds on monkey chymase and human chymase were tested in vitro. The test compounds are as shown by Compound Nos. in Tables 13 and 14.
Preparation of Monkey Chymase
Chymase was purified from monkey cheek pouch and stomach in the following manner.
Briefly, chymase was extracted from homogenized monkey cheek pouch and stomach with 0.01 mol/1000 ml sodium phosphate buffer, pH 7.4, containing 2 mol/1000 ml KCl and 0.1% Nonidet P-40 (Amresco Inc.). The solution containing chymase was applied to a heparin actigel column, and the chymase-rich fractions were collected.
Measurement of Chymase Inhibitory Activity (In Vitro Assay)
Briefly, the purified monkey or human chymase was diluted to an appropriate concentration with 0.01 mol/1000 ml sodium phosphate buffer, pH 7.4, containing 2 mol/1000 ml KCl and 0.1% Nonidet P-40 and used as enzyme solution. Angiotensin I (Peptide Institute Inc.) was diluted with water to 5 mg/ml and used as substrate solution. Test compounds were serially diluted with 10% DMSO. […] After pre-incubation of the mixture at 37° C., 20 μl of the substrate solution was added to the enzyme-test compound mixture and the new mixture was incubated at 37° C. Fifty μl of 30% trichloroacetic acid solution was finally added to stop the enzymatic reaction.
The amount of L-His-L-Leu was measured as angiotensin II produced by the enzymatic reaction. Briefly, 10 μl of the reaction mixture and 10 μl of 1% orthophthalaldehyde solution dissolved in methanol were mixed with 100 μl of 2 mol/1000 ml NaOH and kept at room temperature. The reaction was then stopped by adding 10 μl of 6 mol/1000 ml HCl.

Structure (SMILES)	IC50 [nM]
Cc1noc(C)c1C(=O)N[C@H](C(=O)N1CCC[C@H]1C(=O)NC(Cc1csc2ccccc12)C(=O)C(F)(F)F)C1CCCCC1 (stereo partly shown) [I-A-6]	33
COc1ccc(CC(NC(=O)[C@@H]2CCCN2C(=O)[C@@H](NC(=O)c2c(C)noc2C)C(C)C)C(=O)C(F)(F)F)cc1 (stereo partly shown) [I-A-37]	95
Cc1ccccc1CC(NC(=O)[C@@H]1CCCN1C(=O)[C@@H](NC(=O)c1c(C)noc1C)C(C)C)C(=O)C(F)(F)F (stereo partly shown) [I-A-33]	73
CC(C)[C@H](NC(=O)c1ccnc2ccccc12)C(=O)N1CCC[C@H]1C(=O)NC(Cc1csc2ccccc12)C(=O)C(F)(F)F (stereo partly shown) [I-A-56]	47
CC(C)[C@H](NC(=O)Cn1ccc(=O)n(CC(=O)O)c1=O)C(=O)N1CCC[C@H]1C(=O)NC(Cc1ccccc1)C(=O)C(F)(F)F (stereo partly shown) [I-A-88]	68
CC(C)[C@H](NC(=O)c1ccc2c(c1)OCO2)C(=O)N1CCC[C@H]1C(=O)NC(Cc1csc2ccccc12)C(=O)C(F)(F)F (stereo partly shown) [I-A-57]	100
Cc1snnc1C(=O)N[C@H](C(=O)N1CCC[C@H]1C(=O)NC(Cc1cc2ccccc2s1)C(=O)C(F)(F)F)C(C)C (stereo partly shown) [I-A-99]	83
Cc1nsc(C(=O)N[C@H](C(=O)N2CCC[C@H]2C(=O)NC(Cc2cc3ccccc3s2)C(=O)C(F)(F)F)C(C)C)n1 (stereo partly shown) [I-A-100]	260
CC(C)[C@H](NC(=O)c1ccco1)C(=O)N1CCC[C@H]1C(=O)NC(Cc1csc2ccccc12)C(=O)C(F)(F)F (stereo partly shown) [I-A-74]	350
Cc1onc(-c2ccccc2)c1C(=O)N[C@H](C(=O)N1CCC[C@H]1C(=O)NC(Cc1csc2ccccc12)C(=O)C(F)(F)F)C(C)C (stereo partly shown) [I-A-7]	34
Cc1noc(C)c1C(=O)N[C@H](C(=O)N1CCC[C@H]1C(=O)NC(CC1CCCCC1)C(=O)C(F)(F)F)C(C)C (stereo partly shown) [I-A-16]	110
CC[C@H](NC(=O)c1c(C)noc1C)C(=O)N1CCC[C@H]1C(=O)NC(Cc1ccc2ccccc2c1)C(=O)C(F)(F)F (stereo partly shown) [I-A-13]	50
CC(C)[C@H](NC(=O)c1ccsc1)C(=O)N1CCC[C@H]1C(=O)NC(Cc1csc2ccccc12)C(=O)C(F)(F)F (stereo partly shown) [I-A-72]	160
CC(C)[C@H](NC(=O)CN1CCN(Cc2ccccc2)C1=O)C(=O)N1CCC[C@H]1C(=O)NC(Cc1cc2ccccc2s1)C(=O)C(F)(F)F (stereo partly shown) [I-A-87]	250
Cc1noc(C)c1C(=O)N[C@H](C(=O)N1CCC[C@H]1C(=O)NC(Cc1cc2ccccc2s1)C(=O)C(F)(F)F)C(C)C (stereo partly shown) [I-A-98]	63
Cc1noc(C)c1C(=O)N[C@@H](Cc1ccccc1)C(=O)N1CCC[C@H]1C(=O)NC(Cc1csc2ccccc12)C(=O)C(F)(F)F (stereo partly shown) [I-A-8]	48
Cc1noc(C)c1C(=O)N[C@H](C(=O)N1CCC[C@H]1C(=O)NC(Cc1coc2ccccc12)C(=O)C(F)(F)F)C(C)C (stereo partly shown) [I-A-9]	61
Cc1nsc(C)c1C(=O)N[C@H](C(=O)N1CCC[C@H]1C(=O)NC(Cc1cc2ccccc2s1)C(=O)C(F)(F)F)C(C)C (stereo partly shown) [I-A-94]	15
CC(C)[C@H](NC(=O)CN1CCN(CC(=O)OC(C)(C)C)C1=O)C(=O)N1CCC[C@H]1C(=O)NC(Cc1ccc2ccccc2c1)C(=O)C(F)(F)F (stereo partly shown) [I-A-84]	190
CC(C)[C@H](NC(=O)c1cccs1)C(=O)N1CCC[C@H]1C(=O)NC(Cc1csc2ccccc12)C(=O)C(F)(F)F (stereo partly shown) [I-A-70]	140
Cc1noc(C)c1C(=O)N[C@H](C(=O)N1CCC[C@H]1C(=O)NC(Cc1ccc(F)cc1)C(=O)C(F)(F)F)C(C)C (stereo partly shown) [I-A-30]	65
Cc1noc(C)c1C(=O)N[C@H](C(=O)N1CCC[C@H]1C(=O)NC(Cc1c[nH]c2ccccc12)C(=O)C(F)(F)F)C(C)C (stereo partly shown) [I-A-10]	77
Cc1noc(C)c1C(=O)N[C@H](C(=O)N1CCC[C@H]1C(=O)NC(Cc1ccc(Cl)cc1)C(=O)C(F)(F)F)C(C)C (stereo partly shown) [I-A-29]	57
Cc1nnsc1C(=O)N[C@H](C(=O)N1CCC[C@H]1C(=O)NC(Cc1ccc2ccccc2c1)C(=O)C(F)(F)F)C(C)C (stereo partly shown) [I-A-22]	37
CC(C)[C@H](NC(=O)c1noc2ccccc12)C(=O)N1CCC[C@H]1C(=O)NC(Cc1csc2ccccc12)C(=O)C(F)(F)F (stereo partly shown) [I-A-58]	210
